In patent US11753403B2, “EIF4E inhibitors and uses thereof” (PIC Therapeutics, Inc., priority 2020, dated 2023) one finds IC50 data, which are given here for 43 compounds.

Some results are limits rather than exact numbers.

As a reminder, the IC50 is the concentration that gives 50% inhibition. High values mean a need for much substance, low ones inhibition by little substance.

Chain of Human eIF4E (aa 28-217) / biotin labeled 4G2 peptide (P06730 28-217): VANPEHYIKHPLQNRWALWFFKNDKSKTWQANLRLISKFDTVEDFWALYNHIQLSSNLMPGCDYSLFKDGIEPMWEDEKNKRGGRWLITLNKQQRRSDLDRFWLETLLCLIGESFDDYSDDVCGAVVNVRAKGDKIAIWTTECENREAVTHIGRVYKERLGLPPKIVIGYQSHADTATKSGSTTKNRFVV

The target of the experiment is Human eIF4E (aa 28-217) / biotin labeled 4G2 peptide (Homo sapiens (Human), UniProt P06730). As to the kind of experiment: Human eIF4E/4G2 binding assay (TR-FRET). Conditions: Human eIF4E/4G2 TR-FRET binding assay; head says IC50, legend says EC50. Summed up:
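Refolded His-tagged human eIF4E (aa 28-217), 82.5 nM working stock, preincubated 4 h at RT with compounds (10-point 2-fold series) in NaPi pH 6.5 buffer with DTT and gamma globulin. Biotin-4G2 peptide then added for 20 min, followed by Eu-streptavidin/APC-anti-His for 20 min; TR-FRET 665/615 nm ratio normalized, IC50 fitted.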
(In TR-FRET formats the signal depends on donor and acceptor labels being close together.)
The compound `CC(C)Cc1sc(Nc2ncccc2C(=O)O)nc1-c1ccc(Cl)c(Cl)c1` [I-233] returned an IC50 not above 1000 nM. Compound `CC(=O)NS(=O)(=O)CCN(Cc1ccccc1)c1nc(-c2ccc(Cl)c(Cl)c2)c(CC(C)C)s1` [I-99, N-(2-(benzyl(4-(3,4-dichlorophenyl)-5-isobutylthiazol-2-yl)amino)ethylsulfonyl)acetamide] registered an IC50 of 1000 to 10000 nM. For `CC(C)Cc1sc(N(CCC(=O)NCCNC(=N)N)Cc2ccccc2)nc1-c1ccc(Cl)c(Cl)c1` [I-197, 3-(benzyl(4-(3,4-dichlorophenyl)-5-isobutylthiazol-2-yl)amino)-N-(2-guanidinoethyl) propanamide] the value was 1000 to 10000 nM; for `O=C(O)C(CNc1nc(-c2ccc(Cl)c(Cl)c2)c(CC(F)(F)F)s1)Cc1ccccc1` (stereo not shown) [I-184, 2-benzyl-3-(4-(3,4-dichlorophenyl)-5-(2,2,2-trifluoroethyl)thiazol-2-ylamino)propanoic acid], 1000 to 10000 nM. For `CC(C)Cc1sc(N(CCC(=O)NCC(N)=O)Cc2ccccc2)nc1-c1ccc(Cl)c(Cl)c1` [I-193] the value was more than 10000 nM; for `CC(C)Cc1sc(NCC(Cc2cccc(C(N)=O)c2)C(=O)O)nc1-c1ccc(Cl)c(Cl)c1` (stereo not shown) [I-167], 1000 to 10000 nM. As for `CC(C)Cc1sc(N(CCCc2ccccc2)CCC(=O)O)nc1-c1ccc(Cl)c(Cl)c1` [I-96], the figure is not above 1000 nM. For `CC(C)Cc1sc(N(CC(=O)O)Cc2ccccc2)nc1-c1ccc(Cl)c(Cl)c1` [I-59], the IC50 was not above 1000 nM.

`CC(C)Cc1sc(N2CCN(C)C(C(=O)O)C2)nc1-c1ccc(Cl)c(Cl)c1` (stereo not shown) [I-86] registered an IC50 of more than 10000 nM. As for `O=C(O)CCN(Cc1ccccc1)c1nc(-c2ccc(Cl)c(Cl)c2)c(Cn2ccnc2)s1` [I-122], the figure is 1000 to 10000 nM; as for `CS(=O)(=O)c1sc(NCC(Cc2ccccc2)C(=O)O)nc1-c1ccc(Cl)c(Cl)c1` (stereo not shown) [I-181, 2-benzyl-3-(4-(3,4-dichlorophenyl)-5-(methylsulfonyl)thiazol-2-ylamino)propanoic acid], more than 10000 nM. As for `CC(C)Cc1sc(Nc2ccccc2C(=O)O)nc1-c1ccc(Cl)c(Cl)c1` [I-141, 2-(4-(3,4-dichlorophenyl)-5-isobutylthiazol-2-ylamino)benzoic acid], the figure is 1000 to 10000 nM; as for `CC(C)Cc1sc(Nc2cc(-c3cccc(Cl)c3)sc2C(=O)O)nc1-c1ccc(Cl)c(Cl)c1` [I-272], not above 1000 nM. For `COc1ccccc1CC(CNc1nc(-c2ccc(Cl)c(Cl)c2)c(CC(C)C)s1)C(=O)O` (stereo not shown) [I-20], the IC50 is not above 1000 nM.

For the compound `CC(C)Cc1sc(Nc2nccc(-c3ccccc3)c2C(=O)O)nc1-c1ccc(Cl)c(Cl)c1` [I-241], the IC50 was not above 1000 nM. In turn, `CN(C)Cc1sc(N(CCC(=O)O)Cc2ccccc2)nc1-c1ccc(Cl)c(Cl)c1` [I-89, 3-(benzyl(4-(3,4-dichlorophenyl)-5-((dimethylamino)methyl)thiazol-2-yl)amino)propanoic acid] returned a concentration for half-maximal inhibition (IC50) of more than 10000 nM. For `CC(C)Cc1sc(Nc2ccc(Cl)c(C(=O)O)c2)nc1-c1ccc(Cl)c(Cl)c1` [I-208] the value was not above 1000 nM; for `COC(=O)c1ccc(Nc2nc(-c3ccc(Cl)c(Cl)c3)c(CC(C)C)s2)o1` [I-288], more than 10000 nM.

Regarding `CSc1ccc(-c2nc(N(CCC(=O)O)Cc3ccccc3)sc2CC(C)C)cc1` [I-127], the IC50 fell in the range of 1000 to 10000 nM. Compound `CC(C)Cc1sc(N(CCC(=O)O)Cc2ccccc2)nc1-c1ccc(S(C)(=O)=O)cc1` [I-128, 3-(benzyl(5-isobutyl-4-(4-(methylsulfonyl)phenyl)thiazol-2-yl)amino)propanoic acid] showed an IC50 of more than 10000 nM.

Compound `CC(C)c1sc(NCC(Cc2cccc(F)c2)C(=O)O)nc1-c1ccc(Cl)c(Cl)c1` (stereo not shown) [I-5] displayed an IC50 of 1000 to 10000 nM. `COc1cccc(-c2nc(NCC(Cc3ccc4[nH]ccc4c3)C(=O)O)sc2C(C)C)c1` (stereo not shown) [I-37]: the IC50 lay in the range of 1000 to 10000 nM. As for `CC(C)Cc1sc(N(CCC(=O)NS(C)(=O)=O)Cc2ccccc2)nc1-c1ccc(Cl)c(Cl)c1` [I-97, 3-(benzyl(4-(3,4-dichlorophenyl)-5-isobutylthiazol-2-yl)amino)-N-(methylsulfonyl)propanamide], the figure is 1000 to 10000 nM; as for `CC(C)c1sc(NCC(Cc2cccc(O)c2)C(=O)O)nc1-c1ccc(Cl)c(Cl)c1` (stereo not shown) [I-4], 1000 to 10000 nM; as for `Cc1cc(CC(CNc2nc(-c3ccc(Cl)c(Cl)c3)c(CC(C)C)s2)C(=O)O)cc(C)n1` (stereo not shown) [I-150], 1000 to 10000 nM.

With `CC(C)Cc1sc(N(CCCCCC(N)=O)CCC(=O)O)nc1-c1ccc(Cl)c(Cl)c1` [I-149], the IC50 was more than 10000 nM.

On to `C=C(C)c1sc(NCC(Cc2ccccc2)C(=O)O)nc1-c1ccc(Cl)c(Cl)c1` (stereo not shown) [I-185, 2-benzyl-3-(4-(3,4-dichlorophenyl)-5-(prop-1-en-2-yl)thiazol-2-ylamino)propanoic acid], for which the IC50 lay in the range of 1000 to 10000 nM. For `CC(C)c1sc(NCC(Cc2ccc3[nH]ccc3c2)C(=O)O)nc1-c1ccc(Cl)cc1` (stereo not shown) [I-46] the value was 1000 to 10000 nM; for `CC(C)Cc1sc(N(CCC(=O)O)Cc2ccccc2)nc1-c1ccc2[nH]ccc2c1` [I-85, 3-((4-(1H-indol-5-yl)-5-isobutylthiazol-2-yl)(benzyl)amino)propanoic acid], 1000 to 10000 nM; for `O=C(O)CCN(CCc1ccccc1)c1nc(-c2ccc(Cl)c(Cl)c2)c(C2CC2)s1` [I-57], not above 1000 nM. For `CC(C)Cc1sc(N2CCN(C(=O)Nc3ccccc3)C(C(=O)O)C2)nc1-c1ccc(Cl)c(Cl)c1` (stereo not shown) [I-252] the value was not above 1000 nM. For `CC(C)Cc1sc(Nc2cc(C(C)(C)C)sc2C(=O)O)nc1-c1ccc(Cl)c(Cl)c1` [I-274] the value was not above 1000 nM; for `CC(C)Cc1sc(Nc2cc(C(=O)O)cc(-c3ccccc3)c2)nc1-c1ccc(Cl)c(Cl)c1` [I-215, 5-(4-(3,4-dichlorophenyl)-5-isobutylthiazol-2-ylamino)biphenyl-3-carboxylic acid], not above 1000 nM; for `O=C(O)C(CNc1nc(-c2ccc(Cl)c(Cl)c2)c(CC2CC2)s1)Cc1ccccc1` (stereo not shown) [I-179], 1000 to 10000 nM. Compound `CC(C)c1sc(Nc2c(C(=O)O)sc3ccccc23)nc1-c1ccc(Cl)c(Cl)c1` [I-280] returned an IC50 not above 1000 nM. For `CC(C)Cc1sc(N(CCC(=O)O)CCc2cccc(Cl)c2)nc1-c1ccc(Cl)c(Cl)c1` [I-94] the value was not above 1000 nM. As for `CC(C)Cc1sc(N(CCC(=O)O)Cc2ccccc2)nc1-c1cc(Cl)c(Cl)c(Cl)c1` [I-111], the figure is not above 1000 nM. The compound `CC(C)c1sc(Nc2cc(-c3ccccc3)sc2C(=O)O)nc1-c1ccc(Cl)c(C(F)(F)F)c1` [I-279, 3-(4-(4-chloro-3-(trifluoromethyl)phenyl)-5-isopropylthiazol-2-ylamino)-5-phenylthiophene-2-carboxylic acid] gave an IC50 not above 1000 nM.

`CC(C)Cc1sc(-c2ccc(-c3ccccc3)c(C(=O)O)c2)nc1-c1ccc(Cl)c(Cl)c1` [I-225] registered an IC50 not above 1000 nM. As for `CC(C)Cc1sc(N(CCC(=O)O)Cc2c[nH]c3ccccc23)nc1-c1ccc(Cl)c(Cl)c1` [I-54], the figure is 1000 to 10000 nM; as for `CC(C)c1sc(NCC(Cc2ccccc2)C(=O)O)nc1-c1ccc(Cl)cc1` (stereo not shown) [I-38], 1000 to 10000 nM.

`CC(C)Cc1sc(NCC(CCCCN)C(=O)O)nc1-c1ccc(Cl)c(Cl)c1` (stereo not shown) [I-125, 6-amino-2-((4-(3,4-dichlorophenyl)-5-isobutylthiazol-2-ylamino)methyl)hexanoic acid]: the IC50 is more than 10000 nM. For `CC(C)Cc1sc(NCC(Cc2cccc(F)c2)C(=O)O)nc1-c1ccc(Cl)c(Cl)c1` (stereo not shown) [I-22] the value was not above 1000 nM.
